≈ marks a conversion by molar mass, not a printed value.

The values below come from patent publication US10160724B2, “Tetrahydropyridine derivatives and their use as antibacterial agents” (Dong-A St Co., Ltd., priority 2016, dated 2018).

Holding throughout (test): In vitro antibiotic activity, agar dilution method (Mueller-Hinton agar, NCCLS)
Common to all, as to type: cell-based
(In agar dilution the substance is mixed into plates at graded concentrations.)

Test [1] has as its system E. coli ATCC 25922. The following applies: Escherichia coli, ATCC25922; agar dilution, Mueller-Hinton agar; read-out: MIC for E. coli ATCC 25922. How it is done: (§1) To measure the antibiotic activity of the compounds prepared by Examples, antibiotic activity test in vitro was performed by agar dilution method using Mueller-Hinton agar according to the NCCLS (National Committee for Clinical Laboratory Standards. 2000. Methods for dilution antimicrobial susceptibility tests for bacteria that grow aerobiocally. Approved standard, NCCLS document M7-M5, 5th ed, vol 20, no 2. National Committee for Clinical Laboratory Standards, Wayne, Pa.). The test strain was Escherichia coli (ATCC 25922), Klebsiella pneumonia (ATCC 29665) and Pseudomonas aeriginosa (PAO1).

In test [2] the test system is K. pneumoniae ATCC 29665. The following applies: Klebsiella pneumoniae, ATCC29665; agar dilution, Mueller-Hinton agar; read-out: MIC for K. pneumoniae ATCC 29665. The protocol: as §1
Test [3] deals with P. aeruginosa PAO1. The following applies: Pseudomonas aeruginosa, PAO1; agar dilution, Mueller-Hinton agar; read-out: MIC for P. aeruginosa PAO1. The protocol: as §1

With `CC(CN1CC=C(c2ccc(-c3ccccc3)cc2)CC1)(C(=O)NO)S(C)(=O)=O` (stereo not drawn) [Example 76, 3-(4-([1,1′-biphenyl]-4-yl)-3,6-dihydropyridin-1(2H)-yl)-N-hydroxy-2-methyl-2-(methylsulfonyl)propanamide], the MIC in test [1], in test [2] and in test [3] was greater than 16 µg/mL in each case.
As for `CC(CCN1CC=C(c2ccc(C#CC#CCCO)c(F)c2)CC1)(C(=O)NO)S(C)(=O)=O` (stereo not drawn) [Example 43, 4-(4-(3-fluoro-4-(6-hydroxyhexa-1,3-diyn-1-yl)phenyl)-3,6-dihydropyridin-1(2H)-yl)-N-hydroxy-2-methyl-2-(methylsulfonyl)butanamide], the MIC in test [1] is less than 1 µg/mL; in test [2] it was 1 to 8 µg/mL (≈ 2.16 to 17.3 µM); in test [3] it was 1 to 8 µg/mL (≈ 2.16 to 17.3 µM).
Consider `CC(CCN1CC=C(c2ccc(C#CC#CC3CC3)c(F)c2)CC1)(C(=O)NO)S(C)(=O)=O` (stereo not drawn) [Example 44, 4-(4-(4-(cyclopropylbuta-1,3-diyn-1-yl)-3-fluorophenyl)-3,6-dihydropyridin-1(2H)-yl)-N-hydroxy-2-methyl-2-(methylsulfonyl)butanamide], for which the minimal inhibitory concentration (MIC) in test [1] was less than 1 µg/mL; in test [2] it was 1 to 8 µg/mL (≈ 2.18 to 17.4 µM); in test [3], 1 to 8 µg/mL (≈ 2.18 to 17.4 µM).
For `CN(C)CC#Cc1ccc(C2=CCN(CCC(C)(C(=O)NO)S(C)(=O)=O)CC2)cc1` (stereo not drawn) [Example 7, 4-(4-(4-(3-(dimethylamino)prop-1-yn-1-yl)phenyl)-3,6-dihydropyridin-1(2H)-yl)-N-hydroxy-2-methyl-2-(methylsulfonyl)butanamide], the MIC in test [1], in test [2] and in test [3] was 1 to 8 µg/mL (≈ 2.31 to 18.5 µM) each time.
In the case of `CC(CCN1CC=C(c2ccc(C#CC#CCCCO)cc2)CC1)(C(=O)NO)S(C)(=O)=O` (stereo not drawn) [Example 46, N-hydroxy-4-(4-(4-(7-hydroxyhepta-1,3-diyn-1-yl)phenyl)-3,6-dihydropyridin-1(2H)-yl)-2-methyl-2-(methylsulfonyl)butanamide], the MIC in test [1] is less than 1 µg/mL; in test [2], 1 to 8 µg/mL (≈ 2.18 to 17.4 µM); in test [3], 1 to 8 µg/mL (≈ 2.18 to 17.4 µM).
With `CC(CCN1CC=C(c2ccc(C#CCOCCCO)cc2)CC1)(C(=O)NO)S(C)(=O)=O` (stereo not drawn) [Example 24, N-hydroxy-4-(4-(4-(3-(3-hydroxypropoxy)prop-1-yn-1-yl)phenyl)-3,6-dihydropyridin-1(2H)-yl)-2-methyl-2-(methylsulfonyl)butanamide], the MIC in test [1], in test [2] and in test [3] was 1 to 8 µg/mL (≈ 2.15 to 17.2 µM) throughout.
On to `CC(CCN1CC=C(c2ccc(C#CC#CCCO)cc2)CC1)(C(=O)NO)S(C)(=O)=O` (stereo not drawn) [Example 47, N-hydroxy-4-(4-(4-(6-hydroxyhexa-1,3-diyn-1-yl)phenyl)-3,6-dihydropyridin-1(2H)-yl)-2-methyl-2-(methylsulfonyl)butanamide], for which the MIC in test [1] is less than 1 µg/mL; in test [2], 1 to 8 µg/mL (≈ 2.25 to 18 µM); in test [3] it was less than 1 µg/mL.
As for `CC(CCN1CC=C(c2ccc(C#CC#CCO)cc2)CC1)(C(=O)NO)S(C)(=O)=O` (stereo not drawn) [Example 48, N-hydroxy-4-(4-(4-(5-hydroxypenta-1,3-diyn-1-yl)phenyl)-3,6-dihydropyridin-1(2H)-yl)-2-methyl-2-(methylsulfonyl)butanamide], the MIC in test [1] is less than 1 µg/mL; in test [2], 1 to 8 µg/mL (≈ 2.32 to 18.6 µM); in test [3], less than 1 µg/mL.
On to `CN(C)CC#CC#Cc1ccc(C2=CCN(CCC(C)(C(=O)NO)S(C)(=O)=O)CC2)cc1` (stereo not drawn) [Example 49, 4-(4-(4-(5-(dimethylamino)penta-1,3-diyn-1-yl)phenyl)-3,6-dihydropyridin-1(2H)-yl)-N-hydroxy-2-methyl-2-(methylsulfonyl)butanamide], for which the MIC is less than 1 µg/mL in test [1], 1 to 8 µg/mL (≈ 2.19 to 17.5 µM) in test [2] and less than 1 µg/mL in test [3].
In the case of `CC(O)C#Cc1ccc(C2=CCN(CCC(C)(C(=O)NO)S(C)(=O)=O)CC2)cc1` (stereo not drawn) [Example 8, N-hydroxy-4-(4-(4-(3-hydroxybut-1-yn-1-yl)phenyl)-3,6-dihydropyridin-1(2H)-yl)-2-methyl-2-(methylsulfonyl)butanamide], the MIC in test [1], in test [2] and in test [3] was greater than 16 µg/mL each time.
For the molecule `CC(CCN1CC=C(c2ccc(-c3ccc(Cl)cc3)cc2)CC1)(C(=O)NO)S(C)(=O)=O` (stereo not drawn) [Example 57, 4-(4-(4′-chloro-[1,1′-biphenyl]-4-yl)-3,6-dihydropyridin-1(2H)-yl)-N-hydroxy-2-methyl-2-(methylsulfonyl)butanamide], the results for the MIC in test [1], in test [2] and in test [3] were 1 to 8 µg/mL (≈ 2.16 to 17.3 µM), greater than 16 µg/mL and greater than 16 µg/mL, respectively.
As to `CCS(=O)(=O)c1ccc(-c2ccc(C3=CCN(CCC(C)(C(=O)NO)S(C)(=O)=O)CC3)cc2)cc1.Cl` (stereo not drawn) [Example 73, 4-(4-(4′-(ethylsulfonyl)-[1,1′-biphenyl]-4-yl)-3,6-dihydropyridin-1(2H)-yl)-N-hydroxy-2-methyl-2-(methylsulfonyl)butanamide hydrochloride], the figures for the MIC in test [1], in test [2] and in test [3] were less than 1 µg/mL, 1 to 8 µg/mL and 1 to 8 µg/mL, respectively.
With `CC(CCN1CC=C(c2ccc(C#CCN3CCOCC3)cc2)CC1)(C(=O)NO)S(C)(=O)=O` (stereo not drawn) [Example 25, N-hydroxy-2-methyl-2-(methylsulfonyl)-4-(4-(4-(3-morpholinoprop-1-yn-1-yl)phenyl)-3,6-dihydropyridin-1(2H)-yl)butanamide], the MIC in test [1], in test [2] and in test [3] was 1 to 8 µg/mL (≈ 2.1 to 16.8 µM) throughout.
In the case of `CCCCCc1ccc(-c2ccc(C3=CCN(CCC(C)(C(=O)NO)S(C)(=O)=O)CC3)cc2)cc1` (stereo not drawn) [Example 67, N-hydroxy-2-methyl-2-(methylsulfonyl)-4-(4-(4′-pentyl-[1,1′-biphenyl]-4-yl)-3,6-dihydropyridin-1(2H)-yl)butanamide], the MIC in test [1] was 8 to 16 µg/mL (≈ 16 to 32.1 µM); in test [2] it was greater than 16 µg/mL; in test [3], greater than 16 µg/mL.
As to `CN(C)CCCC#Cc1ccc(C2=CCN(CCC(C)(C(=O)NO)S(C)(=O)=O)CC2)cc1` (stereo not drawn) [Example 20, 4-(4-(4-(5-(dimethylamino)pent-1-yn-1-yl)phenyl)-3,6-dihydropyridin-1(2H)-yl)-N-hydroxy-2-methyl-2-(methylsulfonyl)butanamide], the minimum inhibitory concentration (MIC) in test [1] fell in the range of 1 to 8 µg/mL (≈ 2.17 to 17.3 µM); in test [2], 8 to 16 µg/mL (≈ 17.3 to 34.7 µM); in test [3], 8 to 16 µg/mL (≈ 17.3 to 34.7 µM).
For the molecule `COc1ccc(-c2ccc(C3=CCN(CCC(C)(C(=O)NO)S(C)(=O)=O)CC3)cc2)cc1F` (stereo not drawn) [Example 60, 4-(4-(3′-fluoro-4′-methoxy-[1,1′-biphenyl]-4-yl)-3,6-dihydropyridin-1(2H)-yl)-N-hydroxy-2-methyl-2-(methylsulfonyl)butanamide], the MIC in test [1] is less than 1 µg/mL; in test [2], 8 to 16 µg/mL (≈ 16.8 to 33.6 µM); in test [3] it was greater than 16 µg/mL.
The like results for `CC(CCN1CC=C(c2ccc(-c3cccnc3)cc2)CC1)(C(=O)NO)S(C)(=O)=O` (stereo not drawn) [Example 61, N-hydroxy-2-methyl-2-(methylsulfonyl)-4-(4-(4-(pyridin-3-yl)phenyl)-3,6-dihydropyridin-1(2H)-yl)butanamide] were, in that order, 1 to 8 µg/mL (≈ 2.33 to 18.6 µM), greater than 16 µg/mL and 1 to 8 µg/mL (≈ 2.33 to 18.6 µM).
`CC(CCN1CC=C(c2ccc(C#CCCO)cc2)CC1)(C(=O)NO)S(C)(=O)=O` (stereo not drawn) [Example 5, N-hydroxy-4-(4-(4-(4-hydroxybut-1-yn-1-yl)phenyl)-3,6-dihydropyridin-1(2H)-yl)-2-methyl-2-(methylsulfonyl)butanamide]: the values for the MIC in test [1], in test [2] and in test [3] were 1 to 8 µg/mL (≈ 2.38 to 19 µM), 8 to 16 µg/mL (≈ 19 to 38 µM) and 1 to 8 µg/mL (≈ 2.38 to 19 µM), respectively.
With `CC(CCN1CC=C(c2ccc(C#CC#Cc3ccccc3)cc2)CC1)(C(=O)NO)S(C)(=O)=O` (stereo not drawn) [Example 51, N-hydroxy-2-methyl-2-(methylsulfonyl)-4-(4-(4-(phenylbuta-1,3-diyn-1-yl)phenyl)-3,6-dihydropyridin-1(2H)-yl)butanamide], the MIC in test [1], in test [2] and in test [3] was greater than 16 µg/mL throughout.
In the case of `Cc1csc(-c2ccc(C3=CCN(CCC(C)(C(=O)NO)S(C)(=O)=O)CC3)cc2)c1.Cl` (stereo not drawn) [Example 72, N-hydroxy-2-methyl-2-(methylsulfonyl)-4-(4-(4-(4-methylthiophen-2-yl)phenyl)-3,6-dihydropyridin-1(2H)-yl)butanamide hydrochloride], the MIC in test [1] is less than 1 µg/mL; in test [2], less than 1 µg/mL; in test [3] it was greater than 16 µg/mL.
For the molecule `CC(CCN1CC=C(c2ccc(C#Cc3ccc([N+](=O)[O-])cc3)cc2)CC1)(C(=O)NO)S(C)(=O)=O` (stereo not drawn) [Example 35, N-hydroxy-2-methyl-2-(methylsulfonyl)-4-(4-(4-((4-nitrophenyl)ethynyl)phenyl)-3,6-dihydropyridin-1(2H)-yl)butanamide], the MIC in test [1], in test [2] and in test [3] was greater than 16 µg/mL throughout.
As for `CC(CCN1CC=C(c2ccc(-c3ccc(CN4CCOCC4)cc3)cc2)CC1)(C(=O)NO)S(C)(=O)=O` (stereo not drawn) [Example 74, N-hydroxy-2-methyl-2-(methylsulfonyl)-4-(4-(4′-(morpholinomethyl)-[1,1′-biphenyl]-4-yl)-3,6-dihydropyridin-1(2H)-yl)butanamide], the MIC in test [1] was less than 1 µg/mL; in test [2], less than 1 µg/mL; in test [3], 1 to 8 µg/mL (≈ 1.9 to 15.2 µM).
Take `CN(C)CC#Cc1ccc(C2=CCN(CCC(C)(C(=O)NO)S(C)(=O)=O)CC2)c(F)c1` (stereo not drawn) [Example 33, 4-(4-(4-(3-(dimethylamino)prop-1-yn-1-yl)-2-fluorophenyl)-3,6-dihydropyridin-1(2H)-yl)-N-hydroxy-2-methyl-2-(methylsulfonyl)butanamide]: the MIC lay within 1 to 8 µg/mL (≈ 2.21 to 17.7 µM) in test [1], 8 to 16 µg/mL (≈ 17.7 to 35.4 µM) in test [2] and 1 to 8 µg/mL (≈ 2.21 to 17.7 µM) in test [3].

In general, MIC refers to the least concentration at which growth counts as inhibited.
